# Legend:
# Format in all cases: in vivo
# [1] = test system: Botrytis cinerea; assay: Control test of Botrytis rot (gray mold) of cucumber
# Description: (1) Seedlings of cucumber (Cultivar: Matsukaze) were planted in a pot of 9 cm in diameter. The first leaf was sprayed with 3 ml each of solutions containing the test compound at the concentration of 125 or 31.3 ppm and the plant was dried by the air. After inoculation of the spores of Botrytis cinerea, the plants were kept at 20°±2° C. and 90-100% humidity ((i) protective spraying). Alternatively, the spores were inoculated at first and when the leaves suffered a little (about 2 days after), the solutions of the test compounds were sprayed ((ii) curative spraying). Evaluation was practised 3 days after the inoculation. Percent disease control was calculated by the ratio of diameter of diseased area in treated and untreated plants.
# (§1) (1) Test methods and evaluation are the same as those in Tests 2, 4 and 6.
# [2] = test system: Sphaerotheca fuliginea; assay: Control test to powdery mildew of cucumber (foliar and soil treatment); conditions: index 0-10
# Description: (1) Seeds of cucumber (Cultivar: Matsukaze) were sown in a pot of 9 cm in diameter and the pots were kept in a green house until the plant was grown for 2-3 leaf stage. The first leaf was sprayed with, (i) 3 ml each of solutions containing the test compound at the prescribed concetrations and dried by the air (foliar treatment). Inoculation of spore suspension of Sphaerotheca fuliginea by spraying was practised 2 days before the treatment (curative effect) or 1 day after the treatment (protective effect). Alternatively, (ii) 5 ml of the solution was applied at the root of the seedlings (soil treatment). The pots were kept in a greenhouse for 2 days and inoculation was practised in the same manner noted above. (iii) After sprayed with 3 ml of a solution of the test compound at a concentration of 125 ppm and dried by the air, the treated pots were set in a greenhouse. Untreated pots were placed next to the treated pots. Those treated and untreated plants were inoculated with spore suspension. Protective effect of the test compounds by vapor was thus checked. The effect was examined 14 days after the inoculation of the spores.
# 0: Disease sign is observed on the whole leaf.
# 3: Disease sign is observed on the leaf in about 50%.
# 5: Disease sign is observed on the leaf in about 30%.
# 7: Disease sign is observed on the leaf in about 20%.
# 9: a little disease sign is observed.
# as §1
# [3] = test system: Sphaerotheca fuliginea; assay: Control test to powdery mildew of cucumber by vapor (filter paper disks)
# Description: (1) The first leaves of young cucumber (Cultivar: Matsukaze) planted in pot of 9 cm in diameter were inoculated with spore suspension of Sphaerotheca fuliginea. After the plants were kept in a greenhouse for 2 days, thin cover plates, 15 mm in diameter, were put on the first leaves. Filter paper disks soaked with 80 μl of test solution at a concentration of 31.3, 7.8, 2.0 or 0.5 ppm were put on the plates for 3 days. Disease degrees were observed 14 days after the inoculation.
# It is evaluated as + when an inhibition zone was observed around the plate, as ± when the inhibition zone has nearly the same diameter (8 mm) as that of plate or as - when there is no inhibition zone.
# as §1
# [4] = test system: Fusarium oxysporum; assay: Control test to damping-off of cucumber (Fusarium oxysporum); conditions: 800 ppm, soil drench, 14 days
# Description: (§2) (1) The fungus causing damping-off of cucumber seedlings, Rhizoctonia solani or Fusarium oxysporum was cultured on a wheat bran medium at 28° C. for 5 days, which was mixed with sterilized soil and cultured for 2 days to prepare the inoculum. Sterilized soil (150 g) was put into a pot of 9 cm in diameter. The surface of the spot was covered with the above inoculum. […] Twenty cucumber seeds (Cultivar: Matsukaze) were sown 2 days after. The pots were kept at 30°±2° C. for 14 days. The infection was observed 14 days after and disease degree and percent disease degree were obtained by setting an evaluation index for each disease sympton.
# (§3) (2) Evaluation [formula] wherein a: number of seeds without germination b: number of seedlings showing damping-off c: number of wilted seedlings d: number of seedlings being a little brownish in cotyledons or at the bottom of the stem e: number of uninfected seedlings [formula] wherein a: number of seeds without germination or seedlings with damping-off b: number of wilted seedlings c: number of seedlings being a little brownish in cotyledons or at the bottom of the stem d: number of uninfected seedlings [formula]
# [5] = test system: Rhizoctonia solani; assay: Control test to damping-off of cucumber (Rhizoctonia solani); conditions: soil drench, 14 days
# Description: as §2, §3
# [6] = test system: Puccinia coronata; assay: Control test of crown rust of oat; conditions: 125 ppm
# Description: (1) Young oats (Cultivar: Pc38) grown in pots in a greenhouse were (i) sprayed with 10 ml each of solution of the test compounds at a prescribed concentration and after air-drying, they were inoculated with 15 mg of uredospores of Puccinia coronata per 20 pots (protective spraying) or (ii) sprayed with the test solution 3 days after inoculation of uredospores. After each plant was kept at 20°-25° C. in a greenhouse for 2 weeks, number of uredia was counted on the first leaf.
smiles,measurement,setting,value
"O[C@]1(c2ccc(F)cc2)CCCC[C@H]1n1cncn1 (relative stereo) [Trans-isomer of Compound 28, 1-(4-fluorophenyl)-2-(1,2,4-triazol-1-yl)cyclohexanol, reference compound]","Gray Mold, Percent Disease Control, Curative Spraying","[1]; Table 9, 7.8 ppm",0%
same,"Gray Mold, Percent Disease Control, Protective Spraying","[1]; Table 9, 7.8 ppm",3%
same,"Gray Mold, Percent Disease Control, Curative Spraying","[1]; Table 9, 31.3 ppm",0%
same,"Gray Mold, Percent Disease Control, Protective Spraying","[1]; Table 9, 31.3 ppm",5%
same,"Gray Mold, Percent Disease Control, Curative Spraying","[1]; Table 9, 125 ppm",9%
same,"Gray Mold, Percent Disease Control, Protective Spraying","[1]; Table 9, 125 ppm",0%
same,"Powdery mildew, Foliar Treatment, Curative Effect","[2]; Table 9, 0.03 ppm",0
same,"Powdery mildew, Foliar Treatment, Protective Effect","[2]; Table 9, 0.03 ppm",0
same,"Powdery mildew, Foliar Treatment, Curative Effect","[2]; Table 9, 0.12 ppm",0
same,"Powdery mildew, Foliar Treatment, Protective Effect","[2]; Table 9, 0.12 ppm",0
same,"Powdery mildew, Foliar Treatment, Curative Effect","[2]; Table 9, 0.5 ppm",0
same,"Powdery mildew, Foliar Treatment, Protective Effect","[2]; Table 9, 0.5 ppm",0
same,"Powdery mildew, Soil Treatment, Protective Effect","[2]; Table 9, 0.5 ppm",0
same,"Powdery mildew, Foliar Treatment, Curative Effect","[2]; Table 9, 2.0 ppm",9
same,"Powdery mildew, Foliar Treatment, Protective Effect","[2]; Table 9, 2.0 ppm",0
same,"Powdery mildew, Soil Treatment, Protective Effect","[2]; Table 9, 2.0 ppm",0
same,"Powdery mildew, Soil Treatment, Protective Effect","[2]; Table 9, 7.8 ppm",0
same,"Powdery mildew, Soil Treatment, Protective Effect","[2]; Table 9, 31.3 ppm",9
same,"Powdery mildew, Vapor Effect","[3]; Table 9, 2.0 ppm",-
same,"Powdery mildew, Vapor Effect","[3]; Table 9, 7.8 ppm",-
same,"Powdery mildew, Vapor Effect","[3]; Table 9, 31.3 ppm",-
"O=C1C2CC=CCC2C(=O)N1SC(Cl)(Cl)Cl (stereo not drawn) [Captan, reference compound]",Disease Degree,[4],0
same,Percent Disease Control,[4],100%
"Cc1ccccc1C(=O)Nc1cccc(OC(C)C)c1 [Mepronil, reference compound]",Disease Degree,[5]; 47 ppm,77
same,Percent Disease Control,[5]; 47 ppm,23%
same,Disease Degree,[5]; 750 ppm,5
same,Percent Disease Control,[5]; 750 ppm,95%
"CC(C)(C)C(=O)C(Oc1ccc(Cl)cc1)n1cncn1 (stereo not drawn) [Triadimefon, reference compound]","Foliar Treatment, Curative Effect","[2]; second Table 4, 0.5 ppm",0
same,"Foliar Treatment, Protective Effect","[2]; second Table 4, 0.5 ppm",0
same,"Soil Treatment, Protective Effect","[2]; second Table 4, 0.5 ppm",0
same,"Foliar Treatment, Curative Effect","[2]; second Table 4, 2.0 ppm",9
same,"Foliar Treatment, Protective Effect","[2]; second Table 4, 2.0 ppm",7 (Disease sign is observed on the leaf in about 20%.)
same,"Soil Treatment, Protective Effect","[2]; second Table 4, 2.0 ppm",0
same,"Foliar Treatment, Curative Effect","[2]; second Table 4, 7.8 ppm",10
same,"Foliar Treatment, Protective Effect","[2]; second Table 4, 7.8 ppm",9
same,"Soil Treatment, Protective Effect","[2]; second Table 4, 7.8 ppm",3 (Disease sign is observed on the leaf in about 50%.)
same,"Foliar Treatment, Curative Effect","[2]; second Table 4, 31.3 ppm",10
same,"Foliar Treatment, Protective Effect","[2]; second Table 4, 31.3 ppm",10
same,"Soil Treatment, Protective Effect","[2]; second Table 4, 31.3 ppm",10
same,"Percent Disease Control, Curative Spraying",[6]; curative,100%
same,"Percent Disease Control, Protective Spraying",[6]; protective,100%
same,Protective Effect by Vapor,"[3]; Table 6, 0.5 ppm",-
same,Protective Effect by Vapor,"[3]; Table 6, 2.0 ppm",-
same,Protective Effect by Vapor,"[3]; Table 6, 7.8 ppm",-
same,Protective Effect by Vapor,"[3]; Table 6, 31.3 ppm",-
